The source of these data is PMC11513920, “Building Metabolically Stable and Potent Anti-HIV Thioether-Lipid Analogues of Tenofovir Exalidex: A thorough Pharmacological Analysis” (Journal of Medicinal Chemistry, 2024).

Data set [1] in a line: Human liver microsome stability. The conditions noted are these: for remaining at 2 h, 3 μM / half-life at 3 μM: human, microsomes; for remaining at 2 h, 3 μM: HLM % remaining; for remaining at 2 h, 3 μM / HLM % remaining: relative percent remaining of prodrug at 120 min; for half-life at 3 μM: HLM t1/2, HLM 1 mg/mL. The protocol:
Human liver microsomes (HLMs, 20 mg/mL) and CD-1 mouse liver microsomes (MLMs, 20 mg/mL) were purchased from Xenotech. NADPH was purchased from Sigma-Aldrich and prepared in 10 mM stock solutions of distilled H2O (Invitrogen UltraPure). […] Test compounds and positive controls were initially dissolved in MeOH to make 10 mM stock solutions. Sample solutions were then further diluted in 70/30 MeOH/H2O to 500 μM. Next, the reactions were prepared by mixing human or mouse liver microsomes (55 μL) with potassium phosphate buffer (100 mM, 928 μL) in 1.5 mL Eppendorf tubes. The test compounds (6.6 μL of 500 μM solution) were subsequently added to the suspensions, and the reaction mixtures were incubated at 37 °C for 5 min. Afterward, the liver microsome reactions were initiated with 110 μL of 10 mM NADPH and further incubated at 37 °C for the designated time course of the study. […] Each test compound was run in tandem with positive and negative control experiments for quality assurance. Positive control reactions were conducted at a final volume of 550 μL for a single run of each time point.
For both LM and plasma stability assays, each data point was analyzed in duplicate using in-between blank washes to avoid carry over and to equilibrate the column for the subsequent runs. Averages of these duplicate for individual compounds at each time point were then normalized to the data at 0 min, representing 100% test compound remaining or 0% metabolism. Half-lives (t1/2) were calculated by plotting ln of % test compound remaining versus time and performing linear regression to determine slope.
Metabolic Stability Assays
Liver Microsome Stability
Liver Microsome Stability Assay Setup Example
Quenching Mixture: 100 µL MeOH with ISTD (2 µM d5-7-ethoxycoumarin).
Final Volume After Quenching: 200 µL (100 µL from reaction mixture + 100 µL quencher
solution; ISTD final concentration of 1.0 µM).
(In general: Liver microsomes are vesicles of endoplasmic reticulum, rich in cytochrome P450 enzymes.)

The nature of data set [2]: Solubility in antiviral/cytotoxicity assay medium. It counts as physicochemical. Particulars: despite formulation with HSA. The text has this:
Nevertheless, due to the promising metabolic profile of 2i and 2j, our lab is continuing to analyze TXL analogs with chain lengths beyond 20 atoms and will disclose a report in the future. However, for the sake of this study, 2a remained as the most pharmacologically attractive starting point for ω-functionalization.

The conditions of data set [3]: dogs; cited from earlier work.
The conditions of data set [4]: depending on food intake; cited from earlier work.
Data set [5] in a line: in vitro. Particulars: human, HepaRG Cmax, 20 μM, HSA formulation 5:1, recorded after 3 h incubation.
From the text: (§1) Naturally, due the metabolic complexity of HepaRG cells, we specifically analyzed prodrug cellular uptake and stability, as represented by Cmax and intrinsic clearance (Clint,u) accordingly (Figure 7 and Table 9).
(§2) The HepaRG cell line (HPRGC10, Thermo Fisher Scientific) was used to evaluate the cellular permeability and metabolic stability for select final compounds in vitro. The cells were initially thawed with working media composed of HepaRG Thaw, Plate, & General Purpose Medium Supplement (HPRG670), Williams Medium E (100 mL), and GlutaMax (1 mL), all purchased from Thermo Fisher Scientific. […] After the thawing medium was aspirated from each well, the cells were cultured for an additional 6 days with working media consisting of HepaRG Maintenance/Metabolism Medium Supplement (HPRG720), Williams Medium E (500 mL), and GlutaMax (1 mL), all purchased from Thermo Fisher Scientific. Upon completing the 7-day culture period, HepaRG cells were plated in enough wells to allow for duplicate analysis of prodrugs in two independent cellular uptake or metabolic stability experiments. All studied compounds were formulated with human serum albumin (HSA, 5:1 compound to HSA molar ratio) and subsequently diluted to a 20 μM final concentration with assay medium composed of serum-free INVITROGRO HI Medium and TORPEDO Antibiotic Mix purchased from BioIVT. For cellular uptake determinations, the maintenance/metabolism medium was first aspirated from each well, and then the plated cells were spiked with 1.0 mL of test compound stock solution. Subsequently, the plate was incubated at 37 °C under 5% CO2 environment over the desired time course (seven data points/compound). Blank wells not treated with prodrug were included in assay runs as controls and initial time points (0 min). At each time point, the test compound solution was removed from the appropriate wells, and the plated cells were washed with 1.0 mL of DPBS twice. The HepaRG cells were then extracted with 500 μL of cold ISTD solution (1 μM 7-ethoxy-d5-coumarin in 70/30 MeOH/H2O), and the quenched aliquots were centrifuged at 15,000 g for 10 min at 4 °C. […] After obtaining prodrug Cmax and Tmax values from the cellular uptake assay, HepaRG metabolic stability was then assessed. Following the initial 7-day culture procedure, the maintenance/metabolism medium was aspirated from each well, and the plated cells were spiked with 1.0 mL of test compound stock solution. […] The test compound solution was then removed from each well and replaced with untreated dilution medium (i.e., serum-free INVITROGRO HI Medium and TORPEDO Antibiotic Mix), initializing the stability determination. The HepaRG plate was once more incubated at 37 °C under 5% CO2 atmosphere over the desired time course (nine data points/compound), and sample preparation and analysis were handled in identical fashion to cellular uptake experiments.
Data set [6] can be described thus: in vitro. The conditions noted are these: human, other cell line.
The conditions of data set [7]: plasma, p.o. 10 mg/kg; cited from earlier work.
The conditions of data set [8]: liver, p.o. 10 mg/kg; cited from earlier work.
Data set [9] deals with HepaRG cells. The data set is described as follows: HepaRG cellular uptake. Particulars: for mean prodrug concentration in HepaRG cells: 20 µM; for HepaRG Cmax: 20 μM, HSA formulation 5:1, recorded after 3 h incubation.
From the text: as §1, §2
Data set [10] relates to HepaRG cells. The experiment in a line: HepaRG cellular metabolic stability. The conditions noted are these: for HepaRG t1/2: after 3 h loading at 20 μM, 37 °C; for HepaRG Clint,u: calculated from cellular t1/2.
Data set [11] is described as follows: Cellular cytotoxicity (cell viability, CellTiter 96 or resazurin). Particulars: human, CC50, HEK293T cells, compounds formulated with HSA (5:1). (In general: Alamar Blue is a resazurin reagent that responds to reducing activity.)
Data set [12] deals with HIV-1 subtype C strain MJ4. Also noted: method as in PMID 34459598. The conditions noted are these: previously reported lead; cited from earlier work.
The subject of the next data set is HEK293T cells. Also noted: method as in PMID 34459598. The conditions noted are these: previously reported lead; cited from earlier work.
A further data set can be described thus: HepaRG cellular uptake. The conditions noted are these: human, HepaRG Cmax, 20 μM, HSA formulation 5:1, recorded after 3 h incubation.
The nature of data set [13]: HepaRG cellular metabolic stability. Particulars: human, other cell line.
The mark [14] stands for this setting: 3 μM compound, NADPH, 37 °C, 120 min course.
Setting [15] is: HepaRG Clint,u, calculated from cellular t1/2.
[16] abbreviates: HepaRG t1/2, after 3 h loading at 20 μM, 37 °C.

Values joined by “and” are separate entries in the source; they are usually repeats but may differ in a detail not shown here. Equal entries are not always repeated. Structures can show the parent of a compound that is named as a salt. Where two headings read alike, the source gives them in different places.

The term fraction remaining denotes the share of the starting amount still present when the sample was taken. By half-life is commonly meant the time in which the quantity being followed falls by half. In the case of `CCCCCCCCCCCCCCCCCCSCCCOP(=O)(O)CO[C@H](C)Cn1cnc2c(N)ncnc21.N` [2i], in data set [1], the fraction remaining at 2 h, 3 μM was 95% and the HLM % remaining is recorded as greater than 95%. This molecule also registered a half-life at 3 μM in [1] (setting [14]) greater than 2 h. Moreover, the “solubility in the assay medium” value in [2] is on record as “poor solubility”.
The like results for `CCCCCCCCCCCCCCCCCCCCSCCCOP(=O)(O)CO[C@H](C)Cn1cnc2c(N)ncnc21.N` [2j] were, in that order, 95%, greater than 95%, greater than 2 h and “poor solubility”.
Consider `CC(C)OC(=O)[C@H](C)N[P@](=O)(CO[C@H](C)Cn1cnc2c(N)ncnc21)Oc1ccccc1` [TAF, tenofovir alafenamide], for which the “share of oral dose undergoing hepatic processing” value in data set [3] is 65%.
Consider `CC(C)OC(=O)OCOP(=O)(CO[C@H](C)Cn1cnc2c(N)ncnc21)OCOC(=O)OC(C)C` [TDF, tenofovir disoproxil fumarate], for which, in data set [4], the oral bioavailability is reported as 25–40%.
For orientation: Cmax means the maximum level reached in the sampled fluid or tissue. A word on the hepatocyte CLint: it is a measure of how fast metabolising enzymes remove a compound, apart from limits set by blood flow. What is called CC50 is the concentration giving 50% cytotoxicity. As to `CCCCCCCCCCCCCCCCOCCCOP(=O)(O)CO[C@H](C)Cn1cnc2c(N)ncnc21` [TXL, tenofovir exalidex], the “HLM t1/2” value in [1] (HLM 1 mg/mL, 3 μM compound, NADPH, 37 °C, 120 min course) is 42 min and 41.6 ± 9.0 ^d min. The same molecule displayed a Cmax in the data set “in vitro [5]” of 397 ng/mL. Also, in “in vitro [6]” (setting [15]), the hepatocyte CLint was roughly 29 µL/min/1e6 cells. The half-life in “in vitro [6]” (setting [16]) was 0.717 to 0.733 h. In addition, the entries for the “Prodrug AUC0-24h” value in [7] and in [8] were 301 ng·h/mL and 4970 ng·h/mL, respectively. In addition, the “Prodrug Cmax” value is listed as 125 ng/mL in data set [7] and 2730 ng/mL in data set [8]. For the same molecule, the “Prodrug Tmax” value in data set [7] and in [8] was 1.00 h in each case. Besides, the “Prodrug t1/2” value in data set [7] was 2.92 h. In addition, in data set [7], the k was 0.237. For the same molecule, the “mean prodrug concentration in HepaRG cells” value with HepaRG cells [9] (0.5 h) is listed as 258.83 ng/mL; with HepaRG cells [9] (1 h), 311.46 ng/mL; with HepaRG cells [9] (2 h) it was 378.66 ng/mL; in the data set with HepaRG cells [9] (3 h) it was 397.09 ng/mL; in the data set with HepaRG cells [9] (5 h), 468.27 ng/mL; in the data set on HepaRG cells [9] (7 h), 536.47 ng/mL. Besides, the “HepaRG Cmax” value in the data set with HepaRG cells [9] was determined as 397.1 ± 1.4 ng/mL. Further, the “HepaRG t1/2” value with HepaRG cells [10] was found to be 0.738 ± 0.0083 h. In addition, in the data set with HepaRG cells [10], the “HepaRG Clint,u” value was 28.5 μL/min/million cells. It took 97.6 ± 2.7 µM to reach half-maximal cytotoxicity in data set [11] (CC50 at 48 h).
One may read the IC50 as the concentration that gives 50% inhibition. As to `C[C@H](Cn1cnc2c(N)ncnc21)OCP(=O)(O)OCCCOCCCCCCCCCCCCCCCC(F)(F)F.N` [compound 1], the IC50 in data set [12] is 0.049 ± 0.01 µM. The CC50 with HEK293T cells was greater than 100 µM. In addition, the “Prodrug AUC0-24h” value in data set [7] is 1280 ng·h/mL; in data set [8] it was 109,000 h·ng/mL. Besides, the entries for the “Prodrug Cmax” value in data set [7] and in data set [8] were 125 ng/mL and 8710 ng/mL, respectively. Further, the “Prodrug Tmax” value in data set [7] is on record as 2.00 h. Besides, the “Prodrug t1/2” value in data set [7] is given as 8.66 h. Also, in data set [7], the k is recorded as 0.080. In addition, the peak level in “HepaRG cellular uptake” (Cmax at 3 h, 20 μM) was 337 ng/mL. Besides, the “mean prodrug concentration in HepaRG cells” value in the data set on HepaRG cells [9] (0.5 h) was 141.43 ng/mL; in the data set on HepaRG cells [9] (1 h), 180.34 ng/mL; in the data set on HepaRG cells [9] (2 h), 319.83 ng/mL; with HepaRG cells [9] (3 h) it was 337.43 ng/mL; in the data set with HepaRG cells [9] (5 h), 321.56 ng/mL; in the data set on HepaRG cells [9] (7 h), 417.13 ng/mL. The “HepaRG Cmax” value in the data set on HepaRG cells [9] is 337.4 ± 1.0 ng/mL. Also, the hepatocyte CLint at 20 μM in data set [13] (setting [15]) is roughly 29 µL/min/1e6 cells. This molecule also showed a half-life at 20 μM in [13] (setting [16]) of 0.717 to 0.733 h. The “HepaRG t1/2” value in the data set with HepaRG cells [10] is 0.715 ± 0.0083 h. Also, the “HepaRG Clint,u” value in the data set on HepaRG cells [10] is listed as 29.4 μL/min/million cells.
